One series concerns CYP2C19. The experiment in a line: in vitro. Conditions: microsomes. A digest of the protocol:
(§1)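 Probe substrates were pooled in a single microsomal incubation, with each substrate concentration optimized to keep metabolite formation linear. Metabolites were quantified against isotope-labelled internal standards: hydroxybupropion-[D6] (OHBUP-[D6]) and 5 nM 4′-hydroxydiclofenac-[^13C6] (OHDIC-[^13C6]).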

A further series has as its system CYP2B6. Kind of series: in vitro. The following applies: microsomes. The procedure, abridged: as §1
Another series deals with CYP2C9. Kind of series: in vitro. The following applies: microsomes. A digest of the protocol:
as §1

The test system of a further series is CYP2D6. The experiment in a line: in vitro. Conditions: microsomes. The procedure, abridged:
as §1

In a further series the test system is CYP3A4. The experiment in a line: in vitro. Conditions: microsomes. A digest of the protocol: as §1
In the next series the target is T1, CYP1A2 (Rattus norvegicus, UniProt P04799).
T1 sequence (P04799 1-513): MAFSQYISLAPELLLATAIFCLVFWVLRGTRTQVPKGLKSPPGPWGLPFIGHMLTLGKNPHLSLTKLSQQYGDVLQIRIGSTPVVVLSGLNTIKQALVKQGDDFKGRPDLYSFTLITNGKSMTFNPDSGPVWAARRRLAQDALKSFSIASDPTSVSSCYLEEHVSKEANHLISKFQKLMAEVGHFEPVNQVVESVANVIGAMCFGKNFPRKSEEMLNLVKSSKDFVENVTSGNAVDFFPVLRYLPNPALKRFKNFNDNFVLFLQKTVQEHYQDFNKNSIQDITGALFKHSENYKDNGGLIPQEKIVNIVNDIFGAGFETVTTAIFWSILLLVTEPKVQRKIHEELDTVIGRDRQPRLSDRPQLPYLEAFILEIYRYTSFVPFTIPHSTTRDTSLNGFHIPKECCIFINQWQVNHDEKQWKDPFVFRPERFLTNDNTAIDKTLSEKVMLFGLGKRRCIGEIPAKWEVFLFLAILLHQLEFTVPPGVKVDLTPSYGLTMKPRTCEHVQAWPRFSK
The experiment in a line: In vitro cocktail CYP450 activity assay in rat liver microsomes, CYP1A2 (phenacetin probe). The following applies: microsomes. A digest of the protocol: as §1
A general note: Liver microsomes are vesicles of endoplasmic reticulum, rich in cytochrome P450 enzymes.

For another series, the system named is CYP450s. Kind of series: In vitro cocktail CYP450 activity assay, isozyme not given. In kind it is in vitro ADME, SD rat. How it is done:
(OHBUP-[D6]) and 5 nM 4′-hydroxydiclofenac-[^13C6] (OHDIC-[^13C6]) as internal standards (ISs).

For another series, the target named is CYP2E1 (Rattus norvegicus, UniProt P05182). Conditions: microsomes.

This passage reports IC50 results from paper PMC7076352 (Pharmaceutics, 2020).

CYP2E1, sequence (P05182 whole entry): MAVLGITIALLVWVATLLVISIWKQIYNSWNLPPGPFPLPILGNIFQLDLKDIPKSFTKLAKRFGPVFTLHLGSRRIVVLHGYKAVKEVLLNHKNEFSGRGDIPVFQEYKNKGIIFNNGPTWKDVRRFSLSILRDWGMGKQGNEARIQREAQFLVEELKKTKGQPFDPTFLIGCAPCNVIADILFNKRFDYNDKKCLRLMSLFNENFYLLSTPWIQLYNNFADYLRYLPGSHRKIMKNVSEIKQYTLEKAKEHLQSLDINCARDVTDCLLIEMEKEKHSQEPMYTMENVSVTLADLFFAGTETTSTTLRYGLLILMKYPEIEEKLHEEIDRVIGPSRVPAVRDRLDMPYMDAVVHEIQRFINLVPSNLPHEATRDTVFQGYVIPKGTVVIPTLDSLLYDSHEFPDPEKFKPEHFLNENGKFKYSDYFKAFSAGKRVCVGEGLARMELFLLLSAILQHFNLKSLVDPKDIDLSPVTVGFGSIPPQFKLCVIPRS

Consider `O=c1c(OC2O[C@H](CO)[C@@H](O)[C@H](O)[C@H]2O)c(-c2ccc(O)cc2)oc2cc(O)c(O)c(O)c12` (stereo partly shown) [A6, 6-hydoxykaempferol-3-O-glucoside], for which the IC50 (as a rule, the midpoint of a concentration-inhibition curve) in the series on CYP2C19 is 53.67 ± 0.22 µM; in the series with CYP2B6, 115 ± 3.04 µM; in the series on CYP2C9, 55.8 ± 3.4 µM; in the series on CYP2D6, 19.5 ± 2.83 µM; with CYP3A4 it was 26.4 ± 1.39 µM; on CYP1A2, 52.8 ± 1.93 µM. Moreover, the values for the half-inhibitory concentration (IC50) in the series on CYP450s and against CYP2E1 were not above 15 µM and 40.8 ± 1.65 µM, respectively.

Regarding `O=C(/C=C/c1ccc(O)cc1)C1=C(O)C2=C(O[C@H]([C@@H](O)[C@H](O)[C@H](O)CO)[C@H]2C2=C(O)/C(=C(O)/C=C/c3ccc(O)cc3)C(=O)C(O)([C@@H]3O[C@H](CO)[C@@H](O)[C@H](O)[C@H]3O)C2=O)C(O)([C@@H]2O[C@H](CO)[C@@H](O)[C@H](O)[C@H]2O)C1=O` (stereo partly shown) [A8, anhydroxysafflor yellow B], the IC50 was 111 ± 21.6 µM in the series with CYP2C19; more than 200 µM in the series with CYP2B6; 1.21 ± 0.51 µM in the series on CYP2C9; 10.5 ± 1.11 µM in the series with CYP2D6; 34.4 ± 9.16 µM in the series with CYP3A4; more than 200 µM at CYP1A2. Besides, the IC50 with CYP450s was not above 15 µM; against CYP2E1, 9.06 ± 1.85 µM.
